In ChEMBL document CHEMBL5696442, “Discovery of type II inhibitors of TGFβ-activated kinase 1 (TAK1) and mitogen-activated protein kinase kinase kinase kinase 2 (MAP4K2)” (J Med Chem, 2015):
The source made the active and inactive calls. No cut-off for these calls is given here.

How the values were obtained:
[1] = target: Serine/threonine-protein kinase 35 (Homo sapiens) (UniProt Q8TDR2); assay: Inhibition of STK35 (unknown origin) at 1 uM by Ambit Kinomescan binding assay relative to control
[2] = target: Ephrin type-A receptor 3 (Homo sapiens) (UniProt P29320); assay: Inhibition of EPHA3 (unknown origin) at 1 uM by Ambit Kinomescan binding assay relative to control; values are per cent of control
Ephrin type-A receptor 3 (Homo sapiens), sequence (P29320 whole entry): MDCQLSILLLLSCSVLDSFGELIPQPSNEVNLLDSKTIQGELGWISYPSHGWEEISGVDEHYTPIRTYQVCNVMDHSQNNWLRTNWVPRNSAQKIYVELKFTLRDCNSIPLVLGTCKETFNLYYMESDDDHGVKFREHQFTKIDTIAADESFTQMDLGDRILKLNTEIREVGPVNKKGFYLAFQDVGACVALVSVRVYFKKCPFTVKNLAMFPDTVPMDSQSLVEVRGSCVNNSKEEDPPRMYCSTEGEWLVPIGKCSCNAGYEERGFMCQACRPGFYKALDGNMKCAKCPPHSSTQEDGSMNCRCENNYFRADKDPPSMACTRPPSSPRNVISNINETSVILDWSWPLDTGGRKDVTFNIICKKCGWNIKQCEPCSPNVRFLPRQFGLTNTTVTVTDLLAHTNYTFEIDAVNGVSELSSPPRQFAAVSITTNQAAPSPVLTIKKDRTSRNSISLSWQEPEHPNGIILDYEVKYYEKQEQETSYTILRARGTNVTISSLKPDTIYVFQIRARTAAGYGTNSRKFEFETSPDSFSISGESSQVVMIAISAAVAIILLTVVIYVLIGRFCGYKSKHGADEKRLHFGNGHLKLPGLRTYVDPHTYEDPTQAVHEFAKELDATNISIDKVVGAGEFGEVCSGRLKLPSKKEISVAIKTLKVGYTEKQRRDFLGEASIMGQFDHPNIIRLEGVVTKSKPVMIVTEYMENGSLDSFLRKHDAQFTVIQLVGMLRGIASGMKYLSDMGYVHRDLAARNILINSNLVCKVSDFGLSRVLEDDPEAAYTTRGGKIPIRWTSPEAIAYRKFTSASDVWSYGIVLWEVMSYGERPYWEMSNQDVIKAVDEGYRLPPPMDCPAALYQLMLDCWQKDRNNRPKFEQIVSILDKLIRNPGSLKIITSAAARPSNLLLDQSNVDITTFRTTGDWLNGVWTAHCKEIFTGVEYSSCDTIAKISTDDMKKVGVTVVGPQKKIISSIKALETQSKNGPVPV

[3] = target: 5'-AMP-activated protein kinase catalytic subunit alpha-1 (Homo sapiens) (UniProt Q13131); assay: Inhibition of AMPK-alpha1 (unknown origin) at 10 uM by Ambit Kinomescan binding assay relative to control
[4] = target: T1, Aurora kinase C (Homo sapiens) (UniProt Q9UQB9); assay: Inhibition of AURKC (unknown origin) at 10 uM by Ambit Kinomescan binding assay
T1 sequence (whole entry): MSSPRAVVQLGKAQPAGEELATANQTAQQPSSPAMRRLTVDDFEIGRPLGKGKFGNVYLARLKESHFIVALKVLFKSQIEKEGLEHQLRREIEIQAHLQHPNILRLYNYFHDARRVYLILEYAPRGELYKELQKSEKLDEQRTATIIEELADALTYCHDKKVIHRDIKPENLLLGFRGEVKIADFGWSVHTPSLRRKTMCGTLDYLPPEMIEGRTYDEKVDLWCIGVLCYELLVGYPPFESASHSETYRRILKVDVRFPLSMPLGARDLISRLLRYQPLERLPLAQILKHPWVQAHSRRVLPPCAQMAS

[5] = target: Ribosomal protein S6 kinase alpha-3 (Homo sapiens) (UniProt P51812); assay: Inhibition of RSK2 Domain 1 ACT labeling site harbouring LTDFGLSKESIDHEKK in human Huh-7 cells at 10 uM by KiNativ Profiling analysis relative to control; format: cell-based
[6] = target: Tyrosine-protein kinase CSK (Homo sapiens, UniProt P41240); assay: Inhibition of CSK ACT labeling site harbouring VSDFGLTKEASSTQDTGK in human Huh-7 cells at 10 uM by KiNativ Profiling analysis relative to control; format: cell-based
[7] = target: Myosin light chain kinase family member 4 (Homo sapiens) (UniProt Q86YV6); assay: Inhibition of SgK085 (unknown origin) at 10 uM by Ambit Kinomescan binding assay
Myosin light chain kinase family member 4 (Homo sapiens), sequence (Q86YV6 whole entry): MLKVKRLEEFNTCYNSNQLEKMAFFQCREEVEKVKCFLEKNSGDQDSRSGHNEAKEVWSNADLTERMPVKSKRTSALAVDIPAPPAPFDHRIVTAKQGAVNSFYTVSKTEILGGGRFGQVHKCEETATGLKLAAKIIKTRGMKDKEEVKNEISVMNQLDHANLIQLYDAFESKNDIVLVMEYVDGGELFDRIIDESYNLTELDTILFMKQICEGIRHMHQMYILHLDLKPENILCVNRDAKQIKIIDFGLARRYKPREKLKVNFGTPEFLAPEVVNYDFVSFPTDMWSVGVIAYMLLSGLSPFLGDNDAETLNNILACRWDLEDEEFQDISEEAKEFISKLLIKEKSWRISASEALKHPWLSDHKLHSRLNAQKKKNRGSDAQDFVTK

[8] = target: T2, Dual specificity mitogen-activated protein kinase kinase 6 (Homo sapiens) (UniProt P52564); assay: Inhibition of MAP2K6 Lys2 labeling site in human A-375 cells at 0.05 uM by KiNativ Profiling analysis relative to control; format: cell-based
T2 sequence (whole entry): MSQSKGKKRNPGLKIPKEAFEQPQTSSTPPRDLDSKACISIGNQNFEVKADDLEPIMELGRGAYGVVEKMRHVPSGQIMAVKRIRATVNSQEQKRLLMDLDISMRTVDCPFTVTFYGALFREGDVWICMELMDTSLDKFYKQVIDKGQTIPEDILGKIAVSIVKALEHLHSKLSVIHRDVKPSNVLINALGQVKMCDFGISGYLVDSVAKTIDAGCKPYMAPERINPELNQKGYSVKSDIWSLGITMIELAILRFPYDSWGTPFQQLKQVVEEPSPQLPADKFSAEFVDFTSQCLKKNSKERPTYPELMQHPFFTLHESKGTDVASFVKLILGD

[9] = target: T3, Mitogen-activated protein kinase kinase kinase 5 (Homo sapiens) (UniProt Q99683); assay: Inhibition of MAP3K5 Lys1 labeling site harbouring IAIKEIPER in human A-375 cells at 5 uM by KiNativ Profiling analysis relative to control; format: cell-based
T3 sequence (whole entry): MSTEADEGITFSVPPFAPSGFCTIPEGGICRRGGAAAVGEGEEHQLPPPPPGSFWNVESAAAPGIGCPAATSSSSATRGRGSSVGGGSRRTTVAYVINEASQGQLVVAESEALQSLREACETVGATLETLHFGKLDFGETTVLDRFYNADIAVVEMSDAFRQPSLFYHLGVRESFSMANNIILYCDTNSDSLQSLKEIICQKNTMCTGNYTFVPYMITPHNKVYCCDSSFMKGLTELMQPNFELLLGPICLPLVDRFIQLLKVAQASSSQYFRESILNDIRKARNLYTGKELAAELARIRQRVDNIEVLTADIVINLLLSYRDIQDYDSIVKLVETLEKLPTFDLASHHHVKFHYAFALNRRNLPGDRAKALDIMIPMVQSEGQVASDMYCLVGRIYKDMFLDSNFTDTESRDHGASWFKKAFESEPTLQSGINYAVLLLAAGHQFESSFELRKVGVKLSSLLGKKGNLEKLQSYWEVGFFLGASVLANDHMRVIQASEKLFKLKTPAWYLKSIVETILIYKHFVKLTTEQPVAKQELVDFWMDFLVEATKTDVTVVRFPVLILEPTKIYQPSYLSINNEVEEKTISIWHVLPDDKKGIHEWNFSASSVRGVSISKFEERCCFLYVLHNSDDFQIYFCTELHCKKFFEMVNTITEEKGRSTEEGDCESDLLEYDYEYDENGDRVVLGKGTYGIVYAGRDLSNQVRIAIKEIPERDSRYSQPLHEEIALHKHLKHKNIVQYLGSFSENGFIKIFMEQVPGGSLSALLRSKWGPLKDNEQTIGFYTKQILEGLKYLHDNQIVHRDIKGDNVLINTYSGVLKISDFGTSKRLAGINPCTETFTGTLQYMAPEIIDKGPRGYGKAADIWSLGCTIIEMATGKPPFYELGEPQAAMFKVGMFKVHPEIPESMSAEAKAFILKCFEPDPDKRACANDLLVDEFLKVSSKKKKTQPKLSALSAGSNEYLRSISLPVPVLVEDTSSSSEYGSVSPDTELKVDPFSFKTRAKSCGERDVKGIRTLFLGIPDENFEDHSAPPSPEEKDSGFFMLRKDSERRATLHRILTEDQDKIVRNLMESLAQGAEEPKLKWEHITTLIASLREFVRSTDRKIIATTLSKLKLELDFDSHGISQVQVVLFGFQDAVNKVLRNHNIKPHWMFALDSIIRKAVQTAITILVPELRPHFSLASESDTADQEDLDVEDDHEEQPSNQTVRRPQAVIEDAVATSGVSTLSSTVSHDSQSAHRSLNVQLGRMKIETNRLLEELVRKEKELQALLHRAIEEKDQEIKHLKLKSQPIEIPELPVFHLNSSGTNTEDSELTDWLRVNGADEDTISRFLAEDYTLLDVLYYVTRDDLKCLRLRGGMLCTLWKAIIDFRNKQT

[10] = target: Platelet-derived growth factor receptor alpha (Homo sapiens) (UniProt P16234); assay: Inhibition of PDGFRA (unknown origin) at 10 uM by Ambit Kinomescan binding assay relative to control
Platelet-derived growth factor receptor alpha (Homo sapiens), sequence (P16234 whole entry): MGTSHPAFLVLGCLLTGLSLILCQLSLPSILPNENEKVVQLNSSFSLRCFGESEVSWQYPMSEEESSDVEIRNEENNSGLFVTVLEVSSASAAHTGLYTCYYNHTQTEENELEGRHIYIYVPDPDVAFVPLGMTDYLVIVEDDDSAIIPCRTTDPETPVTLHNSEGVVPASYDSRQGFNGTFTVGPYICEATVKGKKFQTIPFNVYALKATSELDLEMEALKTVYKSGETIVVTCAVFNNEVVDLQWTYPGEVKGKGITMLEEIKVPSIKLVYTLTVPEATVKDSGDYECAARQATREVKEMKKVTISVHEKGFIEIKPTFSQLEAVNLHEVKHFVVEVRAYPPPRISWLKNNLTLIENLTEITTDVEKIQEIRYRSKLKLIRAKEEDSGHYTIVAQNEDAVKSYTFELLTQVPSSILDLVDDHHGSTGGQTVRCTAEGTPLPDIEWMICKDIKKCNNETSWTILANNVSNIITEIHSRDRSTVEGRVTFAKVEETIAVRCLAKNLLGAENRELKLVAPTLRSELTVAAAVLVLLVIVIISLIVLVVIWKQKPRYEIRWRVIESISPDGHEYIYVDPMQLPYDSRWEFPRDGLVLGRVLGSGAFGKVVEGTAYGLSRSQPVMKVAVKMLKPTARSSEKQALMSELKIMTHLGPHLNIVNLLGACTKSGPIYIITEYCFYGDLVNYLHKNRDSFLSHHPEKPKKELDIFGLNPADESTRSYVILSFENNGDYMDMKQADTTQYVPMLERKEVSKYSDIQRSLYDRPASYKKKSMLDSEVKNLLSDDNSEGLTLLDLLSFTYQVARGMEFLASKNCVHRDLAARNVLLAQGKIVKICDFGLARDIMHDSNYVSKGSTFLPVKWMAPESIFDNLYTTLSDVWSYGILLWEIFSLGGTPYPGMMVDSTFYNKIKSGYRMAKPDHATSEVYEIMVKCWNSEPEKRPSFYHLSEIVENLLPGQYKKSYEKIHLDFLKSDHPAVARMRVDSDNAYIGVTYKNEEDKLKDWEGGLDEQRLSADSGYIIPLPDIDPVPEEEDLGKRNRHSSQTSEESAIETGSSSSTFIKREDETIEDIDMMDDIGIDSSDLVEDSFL

[11] = target: Myosin light chain kinase, smooth muscle (Homo sapiens) (UniProt Q15746); assay: Inhibition of smMLCK K1 labeling site in human Huh-7 cells at 10 uM by KiNativ Profiling analysis relative to control; format: cell-based
Myosin light chain kinase, smooth muscle (Homo sapiens), sequence (Q15746 whole entry): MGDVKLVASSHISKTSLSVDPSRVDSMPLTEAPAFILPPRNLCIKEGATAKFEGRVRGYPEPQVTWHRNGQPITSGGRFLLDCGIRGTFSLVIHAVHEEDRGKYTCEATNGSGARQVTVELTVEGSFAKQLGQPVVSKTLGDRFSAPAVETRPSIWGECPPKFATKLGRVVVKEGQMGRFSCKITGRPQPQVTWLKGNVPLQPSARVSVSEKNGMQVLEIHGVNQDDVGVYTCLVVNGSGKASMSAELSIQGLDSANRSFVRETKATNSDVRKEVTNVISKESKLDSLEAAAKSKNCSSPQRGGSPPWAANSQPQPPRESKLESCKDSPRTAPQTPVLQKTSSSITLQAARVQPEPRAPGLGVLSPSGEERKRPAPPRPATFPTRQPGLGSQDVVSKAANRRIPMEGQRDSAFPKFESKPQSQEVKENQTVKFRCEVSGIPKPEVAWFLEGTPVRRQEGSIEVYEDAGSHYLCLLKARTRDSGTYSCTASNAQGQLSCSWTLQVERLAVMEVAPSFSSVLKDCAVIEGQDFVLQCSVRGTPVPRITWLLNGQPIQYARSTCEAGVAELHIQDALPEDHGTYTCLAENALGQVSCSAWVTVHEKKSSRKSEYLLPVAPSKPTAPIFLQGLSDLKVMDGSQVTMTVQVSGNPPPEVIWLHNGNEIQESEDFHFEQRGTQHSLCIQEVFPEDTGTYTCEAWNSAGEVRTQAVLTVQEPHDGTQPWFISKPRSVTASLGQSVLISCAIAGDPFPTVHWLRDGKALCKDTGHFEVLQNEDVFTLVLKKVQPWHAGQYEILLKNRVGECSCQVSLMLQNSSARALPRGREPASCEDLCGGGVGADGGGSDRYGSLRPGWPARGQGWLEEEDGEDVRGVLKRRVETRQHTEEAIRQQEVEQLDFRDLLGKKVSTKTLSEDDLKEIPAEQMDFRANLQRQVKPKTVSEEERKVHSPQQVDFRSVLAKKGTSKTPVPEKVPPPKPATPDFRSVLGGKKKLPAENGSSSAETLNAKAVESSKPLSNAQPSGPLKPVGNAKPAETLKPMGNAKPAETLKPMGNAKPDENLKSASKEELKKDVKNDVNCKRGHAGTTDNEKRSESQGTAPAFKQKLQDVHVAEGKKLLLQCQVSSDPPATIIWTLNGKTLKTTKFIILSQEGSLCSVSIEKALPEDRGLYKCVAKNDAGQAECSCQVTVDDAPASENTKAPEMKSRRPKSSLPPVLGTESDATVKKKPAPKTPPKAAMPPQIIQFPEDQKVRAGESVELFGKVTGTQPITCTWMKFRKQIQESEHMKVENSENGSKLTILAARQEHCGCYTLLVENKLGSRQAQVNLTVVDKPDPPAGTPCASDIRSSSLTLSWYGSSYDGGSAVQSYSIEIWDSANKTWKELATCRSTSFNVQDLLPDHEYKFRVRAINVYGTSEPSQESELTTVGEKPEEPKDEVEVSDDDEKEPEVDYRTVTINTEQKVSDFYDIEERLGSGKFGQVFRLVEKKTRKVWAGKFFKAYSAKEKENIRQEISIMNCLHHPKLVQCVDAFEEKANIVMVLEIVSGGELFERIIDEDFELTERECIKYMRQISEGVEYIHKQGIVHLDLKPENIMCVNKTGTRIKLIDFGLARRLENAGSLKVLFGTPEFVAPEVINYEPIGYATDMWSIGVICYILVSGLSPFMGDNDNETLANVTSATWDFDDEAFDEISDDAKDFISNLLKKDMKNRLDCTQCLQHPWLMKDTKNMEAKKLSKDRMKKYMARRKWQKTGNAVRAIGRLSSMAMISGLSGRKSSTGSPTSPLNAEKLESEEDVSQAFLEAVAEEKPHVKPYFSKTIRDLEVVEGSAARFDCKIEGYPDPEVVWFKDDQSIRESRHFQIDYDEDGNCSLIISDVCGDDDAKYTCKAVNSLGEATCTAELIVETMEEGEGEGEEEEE

[12] = Inhibition of KHS2 Lys1 labeling site in human Huh-7 cell lysate at 1 uM by KiNativ Profiling analysis relative to control; settings: condition cancer

Serine/threonine-protein kinase 35 (Homo sapiens), sequence (Q8TDR2 whole entry): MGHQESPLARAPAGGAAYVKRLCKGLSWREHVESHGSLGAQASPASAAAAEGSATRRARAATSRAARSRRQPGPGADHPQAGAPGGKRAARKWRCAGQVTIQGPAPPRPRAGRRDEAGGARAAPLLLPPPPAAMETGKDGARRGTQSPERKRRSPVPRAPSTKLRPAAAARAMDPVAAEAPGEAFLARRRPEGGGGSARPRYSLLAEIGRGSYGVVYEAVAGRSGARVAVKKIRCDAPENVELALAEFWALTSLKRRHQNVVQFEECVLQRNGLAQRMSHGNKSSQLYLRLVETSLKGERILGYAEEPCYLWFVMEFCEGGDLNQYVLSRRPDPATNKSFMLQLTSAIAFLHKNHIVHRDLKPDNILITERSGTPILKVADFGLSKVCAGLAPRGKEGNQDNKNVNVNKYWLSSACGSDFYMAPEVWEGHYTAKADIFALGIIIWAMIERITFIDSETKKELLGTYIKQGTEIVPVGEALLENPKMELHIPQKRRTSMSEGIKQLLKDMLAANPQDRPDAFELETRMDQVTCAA

**Q.** With CCN1CCN(Cc2ccc(NC(=O)c3ccc(C)c(/C=C/c4cnc5[nH]ccc5c4OC)c3)cc2C(F)(F)F)CC1 as the compound, how does the inhibition [1] read?
**A.** 65%

**Q.** What about the residual activity [2] of the same compound?
**A.** 5.7%

**Q.** With CCN1CCN(Cc2ccc(NC(=O)c3ccc(C)c(Oc4ccnc5[nH]ccc45)c3)cc2C(F)(F)F)CC1 as the compound, how does the inhibition [3] read?
**A.** 33%

**Q.** What about the inhibition [4] of the same compound?
**A.** inactive

**Q.** What about the inhibition [5] of the same compound?
**A.** -8%

**Q.** And the inhibition [6]?
**A.** 10.8%

**Q.** And the inhibition [7]?
**A.** inactive

**Q.** And the inhibition [8]?
**A.** -8.5%

**Q.** What about the inhibition [9] of the same compound?
**A.** -0.6%

**Q.** What about the inhibition [10] of the same compound?
**A.** 0.6%

**Q.** What about the inhibition [11] of the same compound?
**A.** -9%

**Q.** With CNc1cc(Oc2cc(C(=O)Nc3cc(N4CCN(C)CC4)cc(C(F)(F)F)c3)ccc2C)ncn1 as the compound, how does the inhibition at 1 µM [12] read?
**A.** 0.9%
